A short description of the series: Raman spectroscopic measurement of solute concentration in multi-component solvent mixtures. It is filed as physicochemical. The settings on record: prepared at 10 mg/mL.

Two molecules from patent US7521254B2, “Quantitative measurements of concentration and solubility using Raman spectroscopy” (Transform Pharmaceuticals, Inc., priority 2004, dated 2009) can be followed below.

Experimental: FIGS. 1B and 1C depict calibration spectra for a two-component system (component A and component B) in which the solute from FIG. 1A is homogeneously distributed. FIG. 1B represents a calibration spectrum for single-component A while FIG. 1C represents a calibration spectrum for single-component B. The concentration of both single-component systems is 15 mg/mL. FIG. 1D depicts a Raman spectrum of the two-component system (A and B) with an unknown solute concentration. The ratio of A:B is 1:1 in the unknown sample. FIG. 1E is a representation of the Raman intensities at a particular frequency (v1) in both calibration spectra. A dotted line has been drawn between the calibration intensities and illustrates the expected Raman intensities at frequency v1 due to the solute molecule in mixtures of both components. […] In view of FIG. 1E, the ratio of components in the unknown sample can be used to determine the concentration of solute. […] A solute concentration above 15 mg/mL results in a Raman intensity greater than (IA+IB)/2 while a solute concentration below 15 mg/mL results in a Raman intensity less than (IA+IB)/2. Due to a directly proportional and linear relationship between Raman scattering intensity and concentration, values both above and below 15 mg/mL are easily calculated based on the measured Raman intensity of the unknown (multi-component) sample.
In another embodiment, automated software can be programmed to analyze the data. First, the software identifies the spectral peaks and intensities that are unique to the solute molecule by direct comparison with a solvent only (signature) spectrum. The various single-component (calibration) Raman spectra are then accessed and a calibration matrix is configured and saved from these single-component data. […] The concentration of solute in the multi-component system is calculated using a weighted average determination. For instance, the concentration (C) of a solute in a multi-component system can be calculated by using equation (1), C=a1c1+a2c2+a3c3+ . . . […]

`CC(=O)Nc1ccc(O)cc1` [Acetaminophen]: the “mean value for the concentration” value reads like this: (1:1:1 ternary mixtures by volume (Table II), RSD 6.7 percent) 9.48 mg/mL; (1:3 binary mixtures of excipients by volume (Table I), two trials, RSD 9.6 percent) 10.18 mg/mL.
Turning to `CC(=O)Oc1ccccc1C(=O)O` [Acetylsalicylic acid], the “mean value for the concentration” value (1:1 binary mixtures by volume (Table IV), RSD 9.7 percent) was 10.19 mg/mL.
